≈ marks a conversion by molar mass, not a printed value.
How the values were obtained:
Penicillium ochrochloron = assay: Antifungal activity against Penicillium ochrochloron ATCC 9112 assessed as growth inhibition after 72 hrs at 28 degC by serial dilution method; format: functional; settings: for MIC: Penicillium ochrochloron, ATCC 9112, 72 h
Salmonella typhimurium = assay: Antibacterial activity against Salmonella typhimurium ATCC 13311 assessed as growth inhibition after 24 hrs at 37 degC by iodonitrotetrazolium chloride staining based microdilution broth assay; format: functional, Salmonella enterica subsp. enterica serovar Typhimurium; settings: Salmonella enterica, ATCC 13311, 24 h
Candida albicans = assay: Antifungal activity against Candida albicans ATCC 10231 assessed as growth inhibition after 72 hrs at 28 degC by serial dilution method; format: functional; settings: for MIC: Candida albicans, ATCC 10231, 72 h
Pseudomonas aeruginosa = assay: Antibacterial activity against Pseudomonas aeruginosa ATCC 27853 assessed as growth inhibition after 24 hrs at 37 degC by iodonitrotetrazolium chloride staining based microdilution broth assay; format: functional; settings: ATCC 27853, 24 h
Micrococcus flavus = assay: Antibacterial activity against Micrococcus flavus ATCC 10240 assessed as growth inhibition after 24 hrs at 37 degC by iodonitrotetrazolium chloride staining based microdilution broth assay; format: functional; settings: ATCC 10240, 24 h
[1] = target: Human immunodeficiency virus type 1 reverse transcriptase (Human immunodeficiency virus 1) (UniProt Q72547); assay: Inhibition of HIV1 reverse transcriptase assessed as residual enzyme activity by measuring reduction in [3H]dTTP incorporation into poly(rA)-oligo(dT) at 4 uM incubated for 15 mins by scintillation counting method relative to control
Aspergillus fumigatus = assay: Antifungal activity against Aspergillus fumigatus ATCC 1022 assessed as growth inhibition after 72 hrs at 28 degC by serial dilution method; format: functional; settings: for MIC: Aspergillus fumigatus, ATCC 1022, 72 h
Enterobacter cloacae = assay: Antibacterial activity against human isolate of Enterobacter cloacae assessed as growth inhibition after 24 hrs at 37 degC by iodonitrotetrazolium chloride staining based microdilution broth assay; format: functional
Escherichia coli = assay: Antibacterial activity against Escherichia coli ATCC 35210 assessed as growth inhibition after 24 hrs at 37 degC by iodonitrotetrazolium chloride staining based microdilution broth assay; format: functional; settings: ATCC 35210, 24 h
Aspergillus niger = assay: Antifungal activity against Aspergillus niger ATCC 6275 assessed as growth inhibition after 72 hrs at 28 degC by serial dilution method; format: functional; settings: for MIC: Aspergillus niger, ATCC 6275, 72 h
Listeria monocytogenes = assay: Antibacterial activity against Listeria monocytogenes NCTC 7973 assessed as growth inhibition after 24 hrs at 37 degC by iodonitrotetrazolium chloride staining based microdilution broth assay; format: functional; settings: NCTC 7973, 24 h
Aspergillus ochraceus = assay: Antifungal activity against Aspergillus ochraceus ATCC 12066 assessed as growth inhibition after 72 hrs at 28 degC by serial dilution method; format: functional; settings: for MIC: Aspergillus ochraceus, ATCC 12066, 72 h
Trichoderma viride = assay: Antifungal activity against Trichoderma viride IAM 5061 assessed as growth inhibition after 72 hrs at 28 degC by serial dilution method; format: functional; settings: for MIC: Trichoderma viride, IAM 5061, 72 h
Talaromyces funiculosus = assay: Antifungal activity against Penicillium funiculosum ATCC 36839 assessed as growth inhibition after 72 hrs at 28 degC by serial dilution method; format: functional; settings: for MIC: Talaromyces funiculosus, ATCC 36839, 72 h
Aspergillus versicolor = assay: Antifungal activity against Aspergillus versicolor ATCC 11730 assessed as growth inhibition after 72 hrs at 28 degC by serial dilution method; format: functional; settings: for MIC: Aspergillus versicolor, ATCC 11730, 72 h
Staphylococcus aureus = assay: Antibacterial activity against Staphylococcus aureus ATCC 6538 assessed as growth inhibition after 24 hrs at 37 degC by iodonitrotetrazolium chloride staining based microdilution broth assay; format: functional; settings: ATCC 6538, 24 h
Bacillus cereus = assay: Antibacterial activity against clinical isolates of Bacillus cereus assessed as growth inhibition after 24 hrs at 37 degC by iodonitrotetrazolium chloride staining based microdilution broth assay; format: functional

Row | SMILES | MFC99.5 (Penicillium ochrochloron) | MIC (Penicillium ochrochloron) | MBC (Salmonella typhimurium) | MIC (Salmonella typhimurium) | MFC99.5 (Candida albicans) | MIC (Candida albicans) | MBC (Pseudomonas aeruginosa) | MIC (Pseudomonas aeruginosa) | MBC (Micrococcus flavus) | MIC (Micrococcus flavus) | Activity [1] | MFC99.5 (Aspergillus fumigatus) | MIC (Aspergillus fumigatus) | MBC (Enterobacter cloacae) | MIC (Enterobacter cloacae) | MBC (Escherichia coli) | MIC (Escherichia coli) | MFC99.5 (Aspergillus niger) | MIC (Aspergillus niger) | MBC (Listeria monocytogenes) | other results
1 | O=C1CSC(c2ccc(Br)cc2)N1c1nc(C23CC4CC(CC(C4)C2)C3)cs1 (stereo not given) | 21.02 ×10⁻² umol/ml | 210 µM (≈ 99.9 µg/mL) | 420 µM (≈ 200 µg/mL) | 210 µM (≈ 99.9 µg/mL) | 73.6 ×10⁻² umol/ml | 526 µM (≈ 250 µg/mL) | 630 µM (≈ 300 µg/mL) | 420 µM (≈ 200 µg/mL) | 420 µM (≈ 200 µg/mL) | 210 µM (≈ 99.9 µg/mL) | 59.9% | 21.02 ×10⁻² umol/ml | 210 µM (≈ 99.9 µg/mL) | 420 µM (≈ 200 µg/mL) | 20 µM (≈ 9.51 µg/mL) | 210 µM (≈ 99.9 µg/mL) | 210 µM (≈ 99.9 µg/mL) | 31.54 ×10⁻² umol/ml | 210 µM (≈ 99.9 µg/mL) | 630 µM (≈ 300 µg/mL) | MIC (Listeria monocytogenes): 420 µM (≈ 200 µg/mL); MFC99.5 (Aspergillus ochraceus): 42.04 ×10⁻² umol/ml; MIC (Aspergillus ochraceus): 105 µM (≈ 50 µg/mL); MFC99.5 (Trichoderma viride): 10.51 ×10⁻² umol/ml; MIC (Trichoderma viride): 105 µM (≈ 50 µg/mL); MFC99.5 (Talaromyces funiculosus): 52.58 ×10⁻² umol/ml; MIC (Talaromyces funiculosus): 210 µM (≈ 99.9 µg/mL); MFC99.5 (Aspergillus versicolor): 10.51 ×10⁻² umol/ml; MIC (Aspergillus versicolor): 105 µM (≈ 50 µg/mL); MBC (Staphylococcus aureus): 420 µM (≈ 200 µg/mL); MIC (Staphylococcus aureus): 420 µM (≈ 200 µg/mL); MBC (Bacillus cereus): 210 µM (≈ 99.9 µg/mL); MIC (Bacillus cereus): 105 µM (≈ 49.9 µg/mL)
2 | O=C1CSC(c2ccccc2Cl)N1c1nc(C23CC4CC(CC(C4)C2)C3)cs1 (stereo not given) | 1.16 ×10⁻² umol/ml | 5.8 µM (≈ 2.5 µg/mL) | 125 µM (≈ 53.9 µg/mL) | 62.5 µM (≈ 26.9 µg/mL) | 2.32 ×10⁻² umol/ml | 11.6 µM (≈ 5 µg/mL) | 125 µM (≈ 53.9 µg/mL) | 62.5 µM (≈ 26.9 µg/mL) | 125 µM (≈ 53.9 µg/mL) | 45 µM (≈ 19.4 µg/mL) | 99.1% | 1.16 ×10⁻² umol/ml | 5.8 µM (≈ 2.5 µg/mL) | 125 µM (≈ 53.9 µg/mL) | 30.6 µM (≈ 13.2 µg/mL) | 125 µM (≈ 53.9 µg/mL) | 62.5 µM (≈ 26.9 µg/mL) | 1.16 ×10⁻² umol/ml | 9 µM (≈ 3.88 µg/mL) | 125 µM (≈ 53.9 µg/mL) | MIC (Listeria monocytogenes): 16.2 µM (≈ 7 µg/mL); MFC99.5 (Aspergillus ochraceus): 0.07 ×10⁻² umol/ml; MIC (Aspergillus ochraceus): 0.3 µM (≈ 0.129 µg/mL); MFC99.5 (Trichoderma viride): 1.16 ×10⁻² umol/ml; MIC (Trichoderma viride): 5.8 µM (≈ 2.5 µg/mL); MFC99.5 (Talaromyces funiculosus): 1.16 ×10⁻² umol/ml; MIC (Talaromyces funiculosus): 5.8 µM (≈ 2.5 µg/mL); MFC99.5 (Aspergillus versicolor): 1.16 ×10⁻² umol/ml; MIC (Aspergillus versicolor): 5.8 µM (≈ 2.5 µg/mL); MBC (Staphylococcus aureus): 125 µM (≈ 53.9 µg/mL); MIC (Staphylococcus aureus): 62.5 µM (≈ 26.9 µg/mL); MBC (Bacillus cereus): 125 µM (≈ 53.9 µg/mL); MIC (Bacillus cereus): 30.6 µM (≈ 13.2 µg/mL)
3 | O=C1CSC(c2c(Cl)cccc2Cl)N1c1nc(C23CC4CC(CC(C4)C2)C3)cs1 (stereo not given) | 32.22 ×10⁻² umol/ml | 215 µM (≈ 100 µg/mL) | 430 µM (≈ 200 µg/mL) | 215 µM (≈ 100 µg/mL) | 64.45 ×10⁻² umol/ml | 430 µM (≈ 200 µg/mL) | 645 µM (≈ 300 µg/mL) | 430 µM (≈ 200 µg/mL) | 430 µM (≈ 200 µg/mL) | 215 µM (≈ 100 µg/mL) | 52.5% | 53.71 ×10⁻² umol/ml | 215 µM (≈ 100 µg/mL) | 430 µM (≈ 200 µg/mL) | 430 µM (≈ 200 µg/mL) | 430 µM (≈ 200 µg/mL) | 215 µM (≈ 100 µg/mL) | 32.22 ×10⁻² umol/ml | 215 µM (≈ 100 µg/mL) | 860 µM (≈ 400 µg/mL) | MIC (Listeria monocytogenes): 430 µM (≈ 200 µg/mL); MFC99.5 (Aspergillus ochraceus): 53.71 ×10⁻² umol/ml; MIC (Aspergillus ochraceus): 107 µM (≈ 50 µg/mL); MFC99.5 (Trichoderma viride): 21.48 ×10⁻² umol/ml; MIC (Trichoderma viride): 215 µM (≈ 100 µg/mL); MFC99.5 (Talaromyces funiculosus): 53.71 ×10⁻² umol/ml; MIC (Talaromyces funiculosus): 215 µM (≈ 100 µg/mL); MFC99.5 (Aspergillus versicolor): 32.22 ×10⁻² umol/ml; MIC (Aspergillus versicolor): 215 µM (≈ 100 µg/mL); MBC (Staphylococcus aureus): 645 µM (≈ 300 µg/mL); MIC (Staphylococcus aureus): 430 µM (≈ 200 µg/mL); MBC (Bacillus cereus): 645 µM (≈ 300 µg/mL); MIC (Bacillus cereus): 430 µM (≈ 200 µg/mL)
4 | O=C1CSC(c2ccc([N+](=O)[O-])cc2)N1c1nc(C23CC4CC(CC(C4)C2)C3)cs1 (stereo not given) | 0.28 ×10⁻² umol/ml | 1.4 µM (≈ 0.618 µg/mL) | 125 µM (≈ 55.2 µg/mL) | 30.6 µM (≈ 13.5 µg/mL) | 2.26 ×10⁻² umol/ml | 11.3 µM (≈ 4.99 µg/mL) | 125 µM (≈ 55.2 µg/mL) | 30.6 µM (≈ 13.5 µg/mL) | 125 µM (≈ 55.2 µg/mL) | 61.2 µM (≈ 27 µg/mL) | 99.3% | 4.52 ×10⁻² umol/ml | 11.3 µM (≈ 4.99 µg/mL) | 62.5 µM (≈ 27.6 µg/mL) | 30.6 µM (≈ 13.5 µg/mL) | 125 µM (≈ 55.2 µg/mL) | 85 µM (≈ 37.5 µg/mL) | 0.56 ×10⁻² umol/ml | 3.5 µM (≈ 1.55 µg/mL) | 125 µM (≈ 55.2 µg/mL) | MIC (Listeria monocytogenes): 61.2 µM (≈ 27 µg/mL); MFC99.5 (Aspergillus ochraceus): 0.28 ×10⁻² umol/ml; MIC (Aspergillus ochraceus): 1.4 µM (≈ 0.618 µg/mL); MFC99.5 (Trichoderma viride): 0.28 ×10⁻² umol/ml; MIC (Trichoderma viride): 1.4 µM (≈ 0.618 µg/mL); MFC99.5 (Talaromyces funiculosus): 0.14 ×10⁻² umol/ml; MIC (Talaromyces funiculosus): 0.7 µM (≈ 0.309 µg/mL); MFC99.5 (Aspergillus versicolor): 1.13 ×10⁻² umol/ml; MIC (Aspergillus versicolor): 5.6 µM (≈ 2.47 µg/mL); MBC (Staphylococcus aureus): 61.2 µM (≈ 27 µg/mL); MIC (Staphylococcus aureus): 30.6 µM (≈ 13.5 µg/mL); MBC (Bacillus cereus): 30.6 µM (≈ 13.5 µg/mL); MIC (Bacillus cereus): 16.2 µM (≈ 7.18 µg/mL)
5 | O=C1CSC(c2cccc(F)c2)N1c1nc(C23CC4CC(CC(C4)C2)C3)cs1 (stereo not given) | 0.14 ×10⁻² umol/ml | 0.4 µM (≈ 0.166 µg/mL) | 15.3 µM (≈ 6.34 µg/mL) | 9 µM (≈ 3.73 µg/mL) | 0.14 ×10⁻² umol/ml | 0.8 µM (≈ 0.332 µg/mL) | 15.3 µM (≈ 6.34 µg/mL) | 9 µM (≈ 3.73 µg/mL) | 61.2 µM (≈ 25.4 µg/mL) | 30.6 µM (≈ 12.7 µg/mL) | 100% | 0.14 ×10⁻² umol/ml | 0.8 µM (≈ 0.332 µg/mL) | 125 µM (≈ 51.8 µg/mL) | 30.6 µM (≈ 12.7 µg/mL) | 125 µM (≈ 51.8 µg/mL) | 15.3 µM (≈ 6.34 µg/mL) | 0.14 ×10⁻² umol/ml | 0.8 µM (≈ 0.332 µg/mL) | 125 µM (≈ 51.8 µg/mL) | MIC (Listeria monocytogenes): 15.3 µM (≈ 6.34 µg/mL); MFC99.5 (Aspergillus ochraceus): 0.14 ×10⁻² umol/ml; MIC (Aspergillus ochraceus): 0.4 µM (≈ 0.166 µg/mL); MFC99.5 (Trichoderma viride): 0.14 ×10⁻² umol/ml; MIC (Trichoderma viride): 1.2 µM (≈ 0.497 µg/mL); MFC99.5 (Talaromyces funiculosus): 0.14 ×10⁻² umol/ml; MIC (Talaromyces funiculosus): 0.8 µM (≈ 0.332 µg/mL); MFC99.5 (Aspergillus versicolor): 0.14 ×10⁻² umol/ml; MIC (Aspergillus versicolor): 0.4 µM (≈ 0.166 µg/mL); MBC (Staphylococcus aureus): 500 µM (≈ 207 µg/mL); MIC (Staphylococcus aureus): 300 µM (≈ 124 µg/mL); MBC (Bacillus cereus): 500 µM (≈ 207 µg/mL); MIC (Bacillus cereus): 300 µM (≈ 124 µg/mL)
